Laboratory results from ChEMBL document CHEMBL5120754, “Structural modification aimed for improving solubility of lead compounds in early phase drug discovery” (Bioorg Med Chem, 2022).
Values after ≈ are worked out from the molar mass of the structure shown.

Tests used:
physchem [1] = details: buffer
[2] = tested on: Mycobacterium tuberculosis; test: microbe, parasite or virus in culture
physchem [3] = details: octanol/water
[4] = tested on: Human immunodeficiency virus 1; test: Antiviral activity against HIV-1; assay type: functional, organism-based
MCF7 = test: Antiproliferative activity against ER-positive human MCF7 cells after 48 hrs by MTT assay; assay type: functional, cell-based; details: MCF7, 48 h
[5] = buffer
[6] = Lipophilicity, logD of compound; assay type: physicochemical; details: octanol/water
[7] = Permeability of compound in human Caco-2 cells; assay type: ADME, cell-based; details: read-out: permeability
Plasmepsin II = Plasmepsin II (Plasmodium falciparum, UniProt P46925); test: Inhibition of Plasmodium falciparum 3D7 plasmepsin II
Chain of Plasmepsin II (P46925 whole entry): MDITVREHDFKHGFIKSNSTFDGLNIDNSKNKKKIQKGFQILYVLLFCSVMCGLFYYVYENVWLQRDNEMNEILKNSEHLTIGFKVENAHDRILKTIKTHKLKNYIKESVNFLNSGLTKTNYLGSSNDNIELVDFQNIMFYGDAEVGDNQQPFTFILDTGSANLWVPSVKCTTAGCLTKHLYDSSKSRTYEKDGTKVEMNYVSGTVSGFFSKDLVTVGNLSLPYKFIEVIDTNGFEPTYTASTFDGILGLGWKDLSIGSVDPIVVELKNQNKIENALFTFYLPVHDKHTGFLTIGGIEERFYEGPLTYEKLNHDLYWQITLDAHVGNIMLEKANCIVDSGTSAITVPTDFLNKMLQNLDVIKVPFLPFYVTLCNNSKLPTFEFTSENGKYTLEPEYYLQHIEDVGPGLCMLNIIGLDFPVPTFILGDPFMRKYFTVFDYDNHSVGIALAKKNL

| Compound | solubility thermodynamic (physchem [1]) | further results |
| --- | --- | --- |
| COc1c(C(=O)Nc2ccc(NS(C)(=O)=O)cc2)cc(N2CCC(=O)NC2=O)cc1C(C)(C)C | 1500 µg/mL |  |
| C/C(=C1/C(=O)Nc2ccc(NC(N)=O)cc21)c1cc(CNC(=O)C2CCNCC2)c[nH]1 | 17 µg/mL |  |
| Cc1cc(NC(=O)NC23CC4CC(CC(C4)C2)C3)no1 | 25.9 µg/mL | MIC [2]: 27 µg/mL (≈ 98.1 µM) |
| Cc1c(-c2ccc(Cc3ccc(OC(F)(F)F)cc3)cc2)[nH]c2cc(Cl)ccc2c1=O |  | logP (physchem [3]): 6.4 |
| O=C(C(=O)N1CCN(C(=O)c2ccccc2)CC1)c1c[nH]c2c(-n3ccnn3)ncc(F)c12 | 7 µg/mL | EC50 [4]: 0.006 nM |
| C=C1C(=O)[C@]23[C@H](O)[C@H]1CC[C@H]2[C@@]12CO[C@]3(O)[C@@H](O)[C@@H]1C(C)(C)Cc1sc(C)nc12 | 4400 µg/mL | IC50 (MCF7): 2600 nM |
| CN(C)CCn1cc(C(=O)NC23CC4CC(CC(C4)C2)C3)c(=O)c2ccc(F)cc21 | 5.6 µg/mL |  |
| Cc1cc2ccccc2n1CCNC(=O)c1ccc(-c2nnn[nH]2)cc1 |  | Therm_solubility [5]: 0.257 µM |
| C=C1C(=O)[C@]23[C@H](O)[C@H]1CC[C@H]2[C@@]12CO[C@]3(O)[C@@H](O)[C@@H]1C(C)(C)Cc1sc(NC)nc12 | 42400 µg/mL | IC50 (MCF7): 1300 nM |
| CCCCCn1cc(C(=O)NC23CC4CC(CC(C4)C2)C3)c(=O)c2ccc(F)cc21 | 0.014 µg/mL |  |
| Cc1sc(-c2ccccc2)nc1CCOc1ccc(CC(Nc2ccccc2C(=O)c2ccccc2)C(=O)O)cc1 (stereo unspecified) | 1 µg/mL |  |
| c1cn2cc(-c3ccc4cn[nH]c4c3)nc(Nc3ccc(N4CCOCC4)cc3)c2n1 [ENTOSPLETINIB] | 28 µg/mL |  |
| Cc1sc(N2CCOCC2)nc1CCOc1ccc(CC(Nc2ccccc2C(=O)c2ccccc2)C(=O)O)cc1 (stereo unspecified) | 180 µg/mL |  |
| COc1cc(NCc2cc3cc(Cl)ccc3[nH]c2=O)ccc1C#N | 0.43 µM |  |
| CC(C)(C)OC(=O)N1CCN(c2ncc(OCc3ccncc3C#N)cn2)CC1 | 24 µM | logD [6]: 3.3 |
| Cc1nc(N2CCN(c3ncc(OCc4ccncc4C#N)cn3)CC2)no1 |  | logD [6]: 4 |
| COc1ccc2c3c(c4cc(OC)c(OC)cc4c2c1)C[C@H]1CCCN1C3 [(-)-ANTOFINE] |  | Therm_solubility [5]: 1 µg/mL |
| O=c1nc2n(CCCC(F)(F)F)nc(-c3cccc(C(F)(F)F)c3)nc-2c(=O)n1CCC1CC1 | 200 µM |  |
| O=C(Nc1nnc(C2CC2)o1)NC12CC3CC(CC(C3)C1)C2 | 38.3 µg/mL | MIC [2]: 12.5 µg/mL (≈ 41.3 µM) |
| NC(=O)NCCSc1nc(N)nc(-c2c(Cl)cc3c4c(cccc24)COC3)n1 | 773 µM |  |
| O=C1NC(c2ccccc2)(c2ccccc2)C(=O)N1COP(=O)([O-])O.[Na+] | 142000 µg/mL |  |
| O=C1CCC(N2C(=O)c3ccccc3C2=O)C(=O)N1 (stereo unspecified) [THALIDOMIDE] | 52 µg/mL |  |

| Compound | solubility thermodynamic (physchem [1]) | further results |
| --- | --- | --- |
| Cn1nnc(-c2ccc(-c3ccc(N4C[C@H](COP(=O)(O)O)OC4=O)cc3F)cn2)n1 [TEDIZOLID PHOSPHATE] | 50000 µg/mL |  |
| COc1ccc(-c2oc3cc(O[C@@H]4O[C@H](CO[C@@H]5O[C@@H](C)[C@H](O)[C@@H](O)[C@H]5O)[C@@H](O)[C@H](O)[C@H]4O)cc(O)c3c(=O)c2Br)cc1O | 100000 µg/mL | logP (physchem [3]): 0.93 |
| Cn1cc(NC(=O)NC23CC4CC(CC(C4)C2)C3)cn1 | 41.1 µg/mL | MIC [2]: 50 µg/mL (≈ 182 µM) |
| CC1c2ccc3c(c2OC(=O)C1CO)[C@@H](OC(=O)[C@@]12CC[C@@](C)(C(=O)O1)C2(C)C)[C@@H](OC(=O)[C@@]12CC[C@@](C)(C(=O)O1)C2(C)C)C(C)(C)O3 (stereo partly specified) |  | EC50 [4]: 4 nM; logP (physchem [3]): 3.62 |
| CCCN(CCOC)c1cc(C)nc2c(-c3ccc(OC)cc3OC)c(C)nn12 | 10000 µg/mL | logD [6]: 2.78 |
| COCCCc1nc(CCOc2ccc(CC(Nc3ccccc3C(=O)c3ccccc3)C(=O)O)cc2)c(C)s1 (stereo unspecified) | 210 µg/mL |  |
| NC(=O)Nc1ccc2c(c1)/C(=C/c1ccc[nH]1)C(=O)N2 | 2000 µg/mL |  |
| CN(C)CCNC(=O)c1cccc(-c2c[nH]c(/C=C3\C(=O)Nc4ccc(NC(N)=O)cc43)c2)c1 | 13 µg/mL |  |
| C=CC(=O)Nc1cccc(N2C(=O)N(Cc3ccccc3)Cc3cnc(Nc4ccc(N5CCN(C)CC5)cc4OC)nc32)c1 |  | Therm_solubility [5]: 4000 µg/mL |
| Cc1cc(C#N)cc(C)c1Oc1nc(Nc2ccc(C#N)cc2)nc(N)c1Br [ETRAVIRINE] |  | Therm_solubility [5]: 1 µg/mL |
| C=C1C(=O)[C@]23[C@H](O)[C@H]1CC[C@H]2[C@@]12CO[C@]3(O)[C@@H](O)[C@@H]1C(C)(C)CC[C@@H]2O [ORIDONIN] | 1290 µg/mL | IC50 (MCF7): 6600 nM |
| COc1cc(NCc2cc3cc(C)c(C)cc3[nH]c2=O)ccc1-n1cnnn1 | 0.04 µM |  |
| O=c1cc(-c2c(F)cccc2F)oc2ccc3ccccc3c12 | 153 µg/mL |  |
| FC(F)(F)c1c(N2CCC(c3ccccc3)CC2)ccn2c(CC3CC3)nnc12 |  | logP (physchem [3]): 4.6; Papp [7]: 12 ×10⁻⁶ cm/s |
| COc1cnc(-n2cnc(C)n2)c2[nH]cc(C(=O)C(=O)N3CCN(C(=O)c4ccccc4)CC3)c12 | 147 µg/mL |  |
| COc1cc2[nH]c(C)c(-c3ccccc3)c(=O)c2cc1Cl | 6 µM | logD [6]: 1.65 |
| Nc1nc2cc(-c3ccc(CCCc4ccccc4)cc3)cc(CCC(=O)O)c2c(=O)n1CC1CCCO1 (stereo unspecified) |  | Therm_solubility [5]: 0.17 µg/mL; IC50 (Plasmepsin II): 16700 nM |
| CC(=O)NC[C@@H]1OC(=O)N2c3ccc(-c4ccc(C#N)nc4)cc3OC[C@@H]12 | 10 µg/mL |  |
| CC(=O)Nc1nc2c(Oc3cc(-c4ccc(C(F)(F)F)cc4)ncn3)cccc2s1 [AMG-517] | 1 µg/mL |  |
| NC(=O)Nc1ccc2c(c1)/C(=C/c1cc(-c3ccccn3)c[nH]1)C(=O)N2 | 29 µg/mL |  |
| Cc1cc(/C=C/C#N)cc(C)c1Oc1nc(Nc2ccc(CN3CCN(S(C)(=O)=O)CC3)cc2)nc(N)c1Br | 30.9 µg/mL | EC50 [4]: 7.5 nM |
| CCC1(O)C(=O)OCc2c1cc1n(c2=O)Cc2c-1nc1ccc(O)cc1c2CN(C)C (stereo unspecified) | 1000 µg/mL |  |

| Compound | solubility thermodynamic (physchem [1]) | further results |
| --- | --- | --- |
| Nc1nc2cc(-c3ccc(CCCc4ccccc4)cc3)ccc2c(=O)n1CC1CCC(c2ccccc2)O1 (stereo unspecified) | < 0.01 µg/mL | IC50 (Plasmepsin II): 3200 nM |
| Cn1nnc(-c2ccc(-c3ccc(N4C[C@H](CO)OC4=O)cc3F)cn2)n1 [TEDIZOLID] | 136 µg/mL |  |
| CC(C)(C)OC(=O)N1CCN(c2ncc(OCc3ccc(S(C)(=O)=O)cc3)cn2)CC1 | 0.03 µM |  |
| CCn1nc(-c2cccc(Cl)c2)nc2c(=O)n(C)c(=O)nc1-2 | 28.5 µM |  |
| O=C(NCCN1CCCC1)c1cc(-c2ccc(CN3CCOCC3)cc2)nc2ccc(F)cc12 [CABAMIQUINE] | 216 µM |  |
| Oc1nc2cc(Cl)c(Cl)c(Cn3cncn3)c2nc1O | 10 µg/mL |  |
| O=C1NC(=O)C(c2ccccc2)(c2ccccc2)N1 [PHENYTOIN] |  | Therm_solubility [5]: 20000 µg/mL |
| Cc1c(-c2ccc(-c3ccc(OC(F)(F)F)cc3)nc2)[nH]c2ccccc2c1=O |  | logP (physchem [3]): 4.2 |
| CCCOc1ccc(CC(Cc2ccccc2)C(=O)O)cc1CNC(=O)c1ccc(C23CC4CC(CC(C4)C2)C3)cc1 (stereo unspecified) | 1 µg/mL |  |
| C[C@H]1[C@H](COP(=O)([O-])[O-])OC(=O)N1c1ccc(-c2ccc([C@@H]3CN(C)C(=O)O3)nc2)cc1O.[Na+].[Na+] | 227000 µg/mL |  |
| COc1ccc(CNc2c3c(nc4ccc(C#N)cc24)CCN(C(C)=O)C3)cc1Cl | 500 µM |  |
| C=CCNc1nc2c(s1)CC(C)(C)[C@H]1[C@H](O)[C@@]3(O)OC[C@@]21[C@@H]1CC[C@H]2C(=C)C(=O)[C@]13[C@@H]2O | 81200 µg/mL | IC50 (MCF7): 200 nM |
| COc1cc2c(cc1OC)CN(C(=O)/C=C/c1c(-c3ccccc3)n(C)c3ncccc13)CC2 |  | Therm_solubility [5]: 141 µg/mL |
| CCCCCc1ccc(-c2cc(-c3ccc(C(=O)O)cc3)c3c(=O)n(CC4CCC(c5ccccc5)O4)c(N)nc3c2)cc1 (stereo unspecified) | 0.01 µg/mL | IC50 (Plasmepsin II): 740 nM |
| CCCCCc1ccc(-c2cc(CCC(=O)O)c3c(=O)n(CC4CCCO4)c(N)nc3c2)cc1 (stereo unspecified) | 0.1 µg/mL | IC50 (Plasmepsin II): 50 nM |
| CC1CC(=O)Oc2c1ccc1c2[C@@H](OC(=O)[C@@]23CC[C@@](C)(C(=O)O2)C3(C)C)[C@@H](OC(=O)[C@@]23CC[C@@](C)(C(=O)O2)C3(C)C)C(C)(C)O1 (stereo partly specified) |  | EC50 [4]: 1.5 nM; logP (physchem [3]): 4.82 |
| CCCCCCCc1c(C)nc2cc(OC)ccc2c1O | 2 µM | logD [6]: 3.69 |
| CN1C(=O)CCC(N2C(=O)c3ccccc3C2=O)C1=O (stereo unspecified) | 276 µg/mL |  |
| COc1cnc(-n2cnc(C)n2)c2c1c(C(=O)C(=O)N1CCN(C(=O)c3ccccc3)CC1)cn2COP(=O)(O)O [FOSTEMSAVIR] | 11000 µg/mL |  |
| Nc1ncc(-c2nc(N3CCOCC3)nc3c2CCN3C(=O)Nc2ccccc2)cn1 | 3 µg/mL |  |
| Cc1sc(N2CCNCC2)nc1CCOc1ccc(CC(Nc2ccccc2C(=O)c2ccccc2)C(=O)O)cc1 (stereo unspecified) | 10000 µg/mL |  |
